Data reported in patent US20150045330A1, “PROPHYLACTIC AND THERAPEUTIC DRUG FOR AMYOTROPHIC LATERAL SCLEROSIS AND METHOD OF SCREENING THEREFOR” (priority 2012, published 2015).

Tests used:
[1] = test system: TNFα/NF-κB, andorogen receptor and α6β4 integrin pathways; test: Signal transduction pathway analysis in ALS-iPS cell-derived neurons; type: cell-based, human; details: AA addition vs non-addition; FIG. 13B
ALS-MNs [2] = test: Length of neurite in HB9::GFP-positive ALS-MNs (IN Cell Analyzer 2000); type: cell-based, human; details: AA addition vs control group; FIGS. 12E and F
NEFL = NEFL expression level in ALS-MNs (quantitative PCR); type: cell-based, human; details: AA addition
insoluble TDP-43 = test: Amount of TDP-43 protein insoluble in 1% Triton X-100 solution in ALS-MNs; type: cell-based, human; details: AA addition, FIGS. 12G and H
ALS-MNs [3] = test: MDA (malondialdehyde)-modified protein in total protein by Western blotting; type: cell-based, human; details: AA addition vs non-addition, particularly proteins of about 30 kDa to 50 kDa, FIG. 14
From the text: Sequentially, to confirm an antioxidant action of AA, the amount of the protein modified with MDA (malondialdehyde) in the total protein was confirmed by Western blotting using 5 to 15% gradient gel in the AA addition group and the AA non-addition group of control MNs or ALS-MNs. […] This tendency was particularly strong in proteins having a size of about 30 kDa to 50 kDa.

NEFM = NEFM expression level in ALS-MNs (quantitative PCR); type: cell-based, human; details: AA addition
[4] = test system: ALS-iPS cell-derived neurons; test: Gene expression category analysis (gene ontology) in ALS-iPS cell-derived neurons; type: cell-based, human; details: AA addition vs non-addition; FIG. 13A
ALS-MNs [5] = test: Arsenite-induced cell death of iPS cell-derived ALS motor neurons (HB9::GFP-positive cell number); type: cell-based, human; details: added 16 or 48 hr before arsenite addition, FIG. 12D
ALS-MNs [6] = test system: ALS-MNs

Compound: CCCCCCCCCCCCCCCc1cccc(O)c1C(=O)O [anacardic acid]
- TNFα/NF-κB, andorogen receptor and α6β4 integrin pathways [1]: decreased
- length of neurite in ALS-MNs (ALS-MNs [2]): significantly increased
- expression level of NEFL (NEFL): increased
- amount of insoluble TDP-43 (insoluble TDP-43): decreased
- amount of MDA-modified protein in the total protein (ALS-MNs [3]): decreased the amount
- expression level of NEFM (NEFM): increased
- factors relating to intermediate filament cytoskeleton, intermediate filament and keratin filament [4]: increased
- factors relating to translation, RNP complex, RNA binding, RNA metabolism pathway, RNA processing, RNA splicing and spliceosomal complex [4]: decreased

Compound: CO[C@]1(C)C[C@@]2(CO2)[C@H](O)[C@@H](/C=C/C(C)=C/C[C@@H]2O[C@H](C)[C@H](NC(=O)/C=C\[C@H](C)OC(C)=O)C[C@@H]2C)O1 [splicesostatin A]
- suppression of arsenite-induced cell death of ALS-MNs (ALS-MNs [5]; 100 ng/ml): did not show such action

Compound: CC(/C=C/C(=O)NO)=C\[C@@H](C)C(=O)c1ccc(N(C)C)cc1 [trichostatin A]
- suppression of arsenite-induced cell death of ALS-MNs (ALS-MNs [5]; 3 μM): did not show such action

Compound: arsenite
- RNA granule formation (ALS-MNs [6]): promotion
- insoluble TDP-43 (ALS-MNs [6]): increase
- number of cells subjected to EthD-1-positive injury (ALS-MNs [6]): significantly high
